Where two headings read alike, the source gives them in different places.
Columns and labels:
[1] = target: T1, hMAO-A (Homo sapiens, UniProt P21397); test: hMAO-A inhibition (kynuramine to 4-hydroxyquinoline, microsomal recombinant enzyme); format: biochemical; conditions: for hMAO isoform selectivity: hMAO-A vs hMAO-B; for inhibition at 10 µM: read-out: % Inhibition (at 10 µM) hMAO-A
T1 construct: purchased Sigma-Aldrich Quimica S.A., Madrid, Spain; host or cells: insect cells (BTI-TN-5B1-4) infected with recombinant baculovirus
T1 sequence (P21397 1-527): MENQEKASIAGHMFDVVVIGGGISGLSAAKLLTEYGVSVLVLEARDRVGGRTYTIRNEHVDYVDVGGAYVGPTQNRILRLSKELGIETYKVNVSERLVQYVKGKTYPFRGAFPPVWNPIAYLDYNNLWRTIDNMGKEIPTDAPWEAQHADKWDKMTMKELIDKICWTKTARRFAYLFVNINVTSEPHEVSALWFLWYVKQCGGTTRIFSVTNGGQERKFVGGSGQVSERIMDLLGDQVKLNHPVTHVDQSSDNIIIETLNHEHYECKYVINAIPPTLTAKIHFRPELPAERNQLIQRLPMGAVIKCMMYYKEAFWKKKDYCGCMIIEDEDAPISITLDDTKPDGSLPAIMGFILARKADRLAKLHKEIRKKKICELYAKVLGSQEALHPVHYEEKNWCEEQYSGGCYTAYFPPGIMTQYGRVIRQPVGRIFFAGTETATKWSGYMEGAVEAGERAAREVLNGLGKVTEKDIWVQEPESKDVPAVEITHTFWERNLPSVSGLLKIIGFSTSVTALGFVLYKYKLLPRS
Description: (§1) The inhibitory activity of the rivastigmine hybrids (RIV–BIM) on hMAO-A and hMAO-B was studied using an experimental protocol described elsewhere with some modifications. The outlined hMAO inhibition was assessed in microsomal MAO isoforms prepared from insect cells (BTI-TN-5B1-4) infected with recombinant baculovirus containing cDNA inserts for hMAO-A or hMAO-B (Sigma-Aldrich Quimica S.A., Madrid, Spain) and by measuring the enzymatic conversion rates of kynuramine into 4-hydroxyquinoline. […] All assays were performed under sodium phosphate-buffered conditions (50 mM, pH = 7.4). […] Then, the reaction was started with the addition of hMAO-A or hMAO-B. Initial velocities were determined spectrophotometrically in a microplate reader (Biotek Synergy HT, Winooski, VT, USA) at 37 °C by measuring the formation of 4-hydroxyquinoline at 316 nm, over a period of at least 30 min (interval of 1 min). Data were analyzed using GraphPad PRISM version 6 for Windows (GraphPad Software®, San Diego, CA, USA). The initial velocities, obtained from the linear phase of product formation, were normalized and plotted against the respective inhibitor concentration. IC50 values were obtained from dose–response curves and were expressed as the mean ± standard deviation. IC50 values were determined from at least three independent experiments, each performed in triplicate.

[2] = target: T2, hMAO-B (Homo sapiens, UniProt P27338); test: hMAO-B inhibition (kynuramine to 4-hydroxyquinoline, microsomal recombinant enzyme); format: biochemical
T2 construct: purchased Sigma-Aldrich Quimica S.A., Madrid, Spain; host or cells: insect cells (BTI-TN-5B1-4) infected with recombinant baculovirus
T2 sequence (P27338 1-520): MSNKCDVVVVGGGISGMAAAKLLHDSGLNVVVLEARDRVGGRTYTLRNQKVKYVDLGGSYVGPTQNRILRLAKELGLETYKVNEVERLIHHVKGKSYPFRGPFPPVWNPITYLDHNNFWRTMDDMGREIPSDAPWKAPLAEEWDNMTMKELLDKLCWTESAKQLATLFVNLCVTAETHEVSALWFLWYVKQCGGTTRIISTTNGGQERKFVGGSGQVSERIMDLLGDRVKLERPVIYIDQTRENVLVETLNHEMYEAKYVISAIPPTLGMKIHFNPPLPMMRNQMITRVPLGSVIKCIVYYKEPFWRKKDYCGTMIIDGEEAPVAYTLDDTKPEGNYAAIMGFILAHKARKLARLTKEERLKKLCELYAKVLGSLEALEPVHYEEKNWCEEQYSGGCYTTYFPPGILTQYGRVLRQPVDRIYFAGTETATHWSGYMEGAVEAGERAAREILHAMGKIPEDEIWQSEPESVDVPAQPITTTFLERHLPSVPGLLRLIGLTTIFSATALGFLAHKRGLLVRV
Description: as §1

[3] = system: SH-SY5Y cells; format: cell-based, human; conditions: for protection on MPP+-induced toxicity (cell viability, MTT): 1 µM compound, 1 h pre-incubation, then 0.5 mM MPP+ for 24 h
Description: SH-SY5Y human neuroblastoma cells were kept in culture under a humidified atmosphere of 5% CO2 at 37 °C in Dulbecco’s Modified Eagle Medium/Nutrient Mixture F-12 (DMEM/F-12) (Gibco, Thermo Fisher Scientific) supplemented with 10% heat-inactivated fetal bovine serum (FBS), 50 U/mL penicillin, and 50 μg/mL streptomycin. Cells were plated at a density of 1 × 10^5 cells/mL and pre-incubated for 1 h with the compounds by adding them to the medium at the following final concentrations: 1 µM for compounds 4a, 4b, and 5b; 2 µM for compounds 4c and 5a; and 3 µM for compound 4d. Then the cells were incubated for 24 h with MPP^+ (1-methyl-4-phenylpyridinium, Sigma-Aldrich) (1 h pre-incubation + 24 h incubation) at the final concentration of 0.5 mM. MPP^+ was freshly prepared in sterile water on the day of the experiment. The compounds were dissolved in DMSO, aliquoted, and stored at −20 °C; their toxicity was previously studied through cell viability assays to select the highest non-toxic concentration of each compound.
Cell viability was measured by the colorimetric MTT (3-(4,5-dimethylthiazol-2-yl)-2,5-diphenyltetrazolium bromide) reduction assay, which follows the principle that viable cells can metabolize MTT into formazan that absorbs light at 570 nm. After the cell treatments with the compounds and MPP^+, the culture medium was removed, 150 µL of MTT (0.5 mg/mL dissolved in sodium medium) was added to each well, and the 48-well plate was incubated at 37 °C for 2 h. The formazan precipitates were then solubilized with 150 µL of 0.04 M HCl/isopropanol. The absorbance was read at 570 nm using a spectrophotometer (Spectramax Plus 384), and cell viability results were normalized to untreated SH-SY5Y cells, with the means ± SEMs derived from six different experiments performed in duplicate (N = 6). Statistical analyses were performed on GraphPad Prism 8 (GraphPad Software, San Diego, CA, USA) using one-way analysis of variance (ANOVA) followed by Tukey’s post hoc test or using Student’s t-test to determine statistical significance.

[4] = system: Aβ42; conditions: cited from earlier work
[5] = system: Aβ42; conditions: cited from earlier work; remark: listed apart in the source
[6] = Protonation constants by spectrophotometric titration (Psequad fitting); format: physicochemical; conditions: pH 7.4, CL = 1 × 10^−5 M
Description: To formulate the model for the metal chelation mechanism of compounds 4c and 5a, their protonation constants were first determined by spectrophotometric titrations in a 50% (w/w) DMSO/H2O medium by fitting the experimental data with the program Psequad. This working medium was adopted to perform all the equilibrium studies due to certain solubility problems of the compounds. Since the concentration of the compound used in cell studies is low (<7 μM), the final corresponding concentration of DMSO in culture media would be much lower (<1%) and also is not expected to induce modifications of biological tissues.
The two positional isomeric hybrids 4c and 5a were titrated, alone or in the presence of the metal ions, in a 50% w/w DMSO/H2O medium, at T = 25.0 ± 0.1 °C and ionic strength of (I) 0.1 M KCl, by using a 0.1 M KOH (50% w/w DMSO/H2O) titrant solution. The glass and Ag/AgCl reference electrodes were previously conditioned in different DMSO/H2O mixtures of increasing DMSO % compositions, and the response of the glass electrode was evaluated by strong acid–strong base (HCl/KOH) calibrations with the determination of the Nernst parameters by Gran’s method. […] Under these specified experimental conditions, the pKw value (14.95) was determined and subsequently used in the calculations. […]

[7] = Cu(II) complexation by spectrophotometric titration; format: physicochemical; conditions: for logβCumHhLl, global formation constant, species (1–11): CuH−1L (1–11); for logβCumHhLl, global formation constant, species (1–11) / logβCumHhLl, global formation constant, species (102) / logβCumHhLl, global formation constant, species (101): T = 25.0 ± 0.1 °C, I = 0.1 M KCl, 50% w/w DMSO/water; for logβCumHhLl, global formation constant, species (102): CuL2 (102); for logβCumHhLl, global formation constant, species (101): CuL (101); for Kd: calculated at pH 7.4, read-out: conditional dissociation constant (K’d) for the copper complex; for pM (pCu): pM = −log[M] at pH 7.4, CL/CM = 10, CM = 10^−6 M
Description: (§2) The metal complexation studies were performed by spectrophotometric titration, in the same 50% w/w DMSO/water medium used for both ligands alone, with fitting analysis of the UV-Vis spectra by Psequad. The calculated metal-chelating equilibrium models, included in Table 1, show good chelating capacity towards Cu(II) (pCu~10.3–13.6) and Fe(III) (pFe~16.8–17.4), involving complex species with a 1:1 to 1:2 or 1:1 to 1:3 M/L ratio, respectively. Metal coordination is expected to occur primarily through the phenolic oxygen and the imidazole nitrogen N(3) of the BIM moiety.
(§3) The two positional isomeric hybrids 4c and 5a were titrated, alone or in the presence of the metal ions, in a 50% w/w DMSO/H2O medium, at T = 25.0 ± 0.1 °C and ionic strength of (I) 0.1 M KCl, by using a 0.1 M KOH (50% w/w DMSO/H2O) titrant solution. The glass and Ag/AgCl reference electrodes were previously conditioned in different DMSO/H2O mixtures of increasing DMSO % compositions, and the response of the glass electrode was evaluated by strong acid–strong base (HCl/KOH) calibrations with the determination of the Nernst parameters by Gran’s method. […] The spectrophotometric measurements were carried out in a 250–450 nm (L, Cu/L systems) or 250–650 nm (L, Fe/L systems) wavelength range at pH ca 2.5–8.0. Under these specified experimental conditions, the pKw value (14.95) was determined and subsequently used in the calculations. The stepwise protonation constants of the ligands, Ki = [HiL]/[Hi−1L][H], and the overall metal–complex stability constants, βMmHhLl = [MmHhLl]/[M]^m[H]^h[L]^l, were calculated by fitting the spectrophotometric data with the Psequad program. The metal hydrolysis model was determined under the established experimental conditions (I = 0.1 M KCl, 50% w/w DMSO/H2O, T = 25.0 ± 0.1 °C) and the following values of stability constants were included in the equilibrium models related to the Fe(III)/L and Cu(II)/L systems: log βFeH−1 = −4.07, log βFeH−3 = −11.42; log βCu2H−2 = −9.99. The species distribution curves were obtained with the Hyss program.

[8] = Fe(III) complexation by spectrophotometric titration; format: physicochemical; conditions: for log βFemHhLl, global formation constant, species (102): FeL2 (102); for log βFemHhLl, global formation constant, species (102) / log βFemHhLl, global formation constant, species (103) / log βFemHhLl, global formation constant, species (101): T = 25.0 ± 0.1 °C, I = 0.1 M KCl, 50% w/w DMSO/water; for log βFemHhLl, global formation constant, species (103): FeL3 (103); for log βFemHhLl, global formation constant, species (101): FeL (101); for pM (pFe): pM = −log[M] at pH 7.4, CL/CM = 10, CM = 10^−6 M
Description: as §2, §3

[9] = absence of copper, 20 µM inhibitor, thioflavin-T fluorescence
[10] = presence of copper (40 µM), 20 µM inhibitor, thioflavin-T fluorescence

Structure (SMILES)	IC50 [1]	hMAO isoform selectivity [1]	inhibition at 10 µM [2]	Aβ42 Self- Aggreg. Inhib. [4, 9]	Aβ42 Cu-ind. Aggreg. Inhib. [5, 10]	inhibition at 10 µM [1]	other results
CCN(C)C(=O)Oc1cccc(NC(=O)c2ccc3[nH]c(-c4ccccc4O)nc3c2)c1 [4a]	740 ± 70 nM	selective for isoform A	28%	39.0%	41.2%		protection on MPP+-induced toxicity (cell viability, MTT) [3]: significant protection
CCN(C)C(=O)Oc1cccc(CNC(=O)c2ccc3[nH]c(-c4ccccc4O)nc3c2)c1 [4b]	8600 ± 900 nM	selective for isoform A	43%	39.6%	48.8%		
CCN(C)C(=O)Oc1cccc(CCNC(=O)c2ccc3[nH]c(-c4ccccc4O)nc3c2)c1 [4c]			33%	21.2%	22.0%	30%	predominant neutral species HL [6]: 97.4%; logβCumHhLl, global formation constant, species (1–11) [7]: 3.40(5); logβCumHhLl, global formation constant, species (102) [7]: 17.16(8); logβCumHhLl, global formation constant, species (101) [7]: 9.09(5); Kd [7]: 32 nM; pM (pCu) [7]: 10.3; log βFemHhLl, global formation constant, species (102) [8]: 20.35(7); log βFemHhLl, global formation constant, species (103) [8]: 28.40(6); log βFemHhLl, global formation constant, species (101) [8]: 11.57(6); pM (pFe) [8]: 16.8
CCN(C)C(=O)Oc1ccc(CCCNC(=O)c2ccc3[nH]c(-c4ccccc4O)nc3c2)cc1 [4d]	11000 ± 1000 nM	selective for isoform A	43%	20.1%	21.3%		
CCN(C)C(=O)Oc1cccc(NC(=O)c2cccc3[nH]c(-c4ccccc4O)nc23)c1 [5a]			31%	44.5%	45.4%	33%	predominant neutral species HL [6]: 94.9%; logβCumHhLl, global formation constant, species (1–11) [7]: 3.82(8); logβCumHhLl, global formation constant, species (102) [7]: 20.43(5); logβCumHhLl, global formation constant, species (101) [7]: 11.30(2); Kd [7]: 0.098 nM; pM (pCu) [7]: 13.6; log βFemHhLl, global formation constant, species (102) [8]: 23.82(4); log βFemHhLl, global formation constant, species (103) [8]: 30.20(8); log βFemHhLl, global formation constant, species (101) [8]: 12.53(5); pM (pFe) [8]: 17.4
CCN(C)C(=O)Oc1cccc(CNC(=O)c2cccc3[nH]c(-c4ccccc4O)nc23)c1 [5b]			34%	58.7%	60.8%	22%	protection on MPP+-induced toxicity (cell viability, MTT) [3]: significant protection
COc1cc(/C=C/C(=O)CC(=O)/C=C/c2ccc(O)c(OC)c2)ccc1O [Curcumin, curcumin, reference compound]							Aβ42 Self- Aggreg. Inhib. [4]: 65.7%; Aβ42 Cu-ind. Aggreg. Inhib. [5]: 62.7%
C[n+]1ccc(-c2ccccc2)cc1 [MPP^+, 1-methyl-4-phenylpyridinium, reference compound]							decrease in cell viability compared with untreated cells ([3]; MPP+ 0.5 mM, 24 h, MTT): approximately 30%
C[C@H](NCc1ccc(OCc2cccc(F)c2)cc1)C(N)=O [Safinamide, safinamide, reference compound]						13%	
